One data set relates to anti-NMDAR encephalitis. As to the kind of experiment: Case study: tramadol pre-treatment with therapeutic plasma exchange (PLEX) in a patient with anti-NMDAR encephalitis. Type of data set: in vivo, human. From the text:
Described herein is a previously healthy person with newly diagnosed seizures and schizophrenia. […] At that time, they were started on solumedrol 1 g each day for five days along with the last two days of the steroid course being completed. […] Their anti-epileptic medications were escalated to include levetiracetam, phenobarbital, and lacosimide.
The assay used a semi-quantitative indirect immunofluorescence on human embryonic kidney cell cultures expressing recombinant NMDA receptors (transfected HEK 293 cells). […] NMDA receptor antibodies were not sent from their serum. […] Six days after their colectomy, PLEX was restarted for another five sessions.

For data set [1] the following is noted: oral formulation; Grond and Sablotzki 2004; cited from earlier work.
For data set [2] the following is noted: Grond and Sablotzki 2004; cited from earlier work.
[3] abbreviates: PLEX in combination with tramadol 100 mg enterally three times a day.

We go through three molecules from patent US10898451B2 (Board of Regents of the University of Texas System, priority 2018, dated 2021).

Structures are written as SMILES.

`C[C@H]1C[C@@H]2[C@H]([C@@H](O)C[C@@]3(C)[C@H]2CC[C@]3(O)C(=O)COC(=O)CCC(=O)O)[C@@]2(C)C=CC(=O)C=C12` [solumedrol]: the “improvement of symptoms after steroid course” value with anti-NMDAR encephalitis (solumedrol 1 g each day for five days) is reported as “failed to improve any of their symptoms”.
Take `COc1cccc(C2(O)CCCCC2CN(C)C)c1` (stereo not shown) [tramadol, 2-(dimethylaminomethyl)-1-(3-methoxyphenyl)cyclohexanol]: in the data set with anti-NMDAR encephalitis (setting [3]), the “facial dyskinesias by the end of the fifth PLEX session” value is recorded as “completely resolved”; the “following commands by the end of the third PLEX session” value is on record as “began to follow commands”; the “level of consciousness by the end of the fifth PLEX session” value was “alert and awake enough to interact with their care providers”. For the same molecule, the “overall safety and efficacy in anti-NMDAR encephalitis” value in the data set on anti-NMDAR encephalitis (conclusion of the case study) is “safe and an effective treatment”. The “recurrence of symptoms at follow up” value with anti-NMDAR encephalitis (nine months after symptoms onset) is recorded as “has not had any recurrent symptoms”. The “facial dyskinesias after the first PLEX session” value in the data set on anti-NMDAR encephalitis (patient, tramadol 100 mg enterally three times a day, one hour before each of five PLEX sessions) is recorded as “resolved”. The “eye opening immediately following the first PLEX session” value with anti-NMDAR encephalitis (tramadol 100 mg enterally three times a day, one hour before each PLEX session) is listed as “opened their eyes spontaneously”. Further, in data set [1], the absorption entry is listed as “completely absorbed”, the “brain concentration versus plasma” value is “higher brain concentration than in plasma” and the peak onset result was “approximately 60 min”. Also, the “patients with serious side effects (hypotension, circulatory collapse, pruritis, sleep disorders, somnolence, abdominal pain, tachycardia)” value in data set [2] is on record as “less than 1%”.
In the case of `CNC1(c2ccccc2Cl)CCCCC1=O` (stereo not shown) [ketamine], the “facial dyskinesias during the first three PLEX sessions (without tramadol)” value in the data set with anti-NMDAR encephalitis (ketamine at 20 mcg/kg/min, patient obtunded and not following commands) is “minimal improvement”.
